Laboratory results taken from PMC10178848, “Modulating fast skeletal muscle contraction protects skeletal muscle in animal models of Duchenne muscular dystrophy” (The Journal of Clinical Investigation, 2023).
Like-named read-outs stand apart in the source and are kept apart here.

Assays:
[1] = target: T1, smooth muscle myosin S1 isolated from chicken gizzard (Gallus gallus, UniProt P10587); assay: Actin-activated myosin S1 ATPase, smooth muscle; format: biochemical
T1 construct: purchased Cytoskeleton Inc; host or cells: chicken gizzard
Procedure: Smooth muscle chicken gizzard S1 was purchased from Cytoskeleton Inc. Other myosin S1 was prepared via published protocols ([21]). Briefly, fresh rabbit psoas and frozen porcine ventricular muscle (Pel-freez) were extracted in 0.3 M KCl, 0.15 M KH2PO4, 1 mM EGTA, 1 mM ATP, 1 mM DTT, pH 6.5, at 4°C. Full-length myosin was purified from each extract via low-ionic precipitations with final precipitation into PM12 buffer (12 mM PIPES, pH 7.0, 2 mM MgCl2). Purified myosin was resuspended in PIPES/EDTA buffer (20 mM PIPES, pH 6.8, 10 mM EDTA, 1 mM DTT) and reacted with 0.2 mg/mL α-chymotrypsin for 30 minutes at room temperature. Proteolysis was quenched with PMSF (final concentration 100 μM), and the reaction was centrifuged for 45 minutes at 230,000g. S1 fragment in the supernatant was dialyzed into PM12 with 0.02% sodium azide and clarified by centrifugation. Sucrose was added to 10% w/v and flash-frozen in liquid N2 and stored at –80°C. […]
A lactate dehydrogenase/pyruvate kinase enzyme-coupled system ([62]) was used to monitor ATP hydrolysis rates in various muscle preparations. […] A multidrop cassette (Thermo Fisher Scientific) dispensed 10 μL of the coupled enzyme system, calcium, and myofibrils to 10 μL ATP, NADH and PEP to initiate the reaction prior to reading on a plate reader (Envision, Perkin Elmer) for 10 minutes per plate at room temperature. […]

[2] = target: T2, bovine cardiac myofibrils (Bos taurus, UniProt Q9BE39); assay: Myofibril ATPase, bovine cardiac; format: biochemical; conditions: bovine cardiac ventricle; at pCa50
T2 construct: from tissue; host or cells: bovine cardiac ventricle
Procedure: Myofibrils were prepared from various animals and tissues: rabbit psoas muscle and porcine cardiac muscle were purchased from Pel-Freez Biologicals. Human bicep and soleus muscle were purchased from BioIVT, and neonatal rat muscle was obtained in house. All myofibrils were prepared using published methods ([21]).
A lactate dehydrogenase/pyruvate kinase enzyme-coupled system ([62]) was used to monitor ATP hydrolysis rates in various muscle preparations. Rabbit psoas myofibrils were used for high-throughput screening at pCa 6.25 at 0.25 mg/mL. A multidrop cassette (Thermo Fisher Scientific) dispensed 10 μL of the coupled enzyme system, calcium, and myofibrils to 10 μL ATP, NADH and PEP to initiate the reaction prior to reading on a plate reader (Envision, Perkin Elmer) for 10 minutes per plate at room temperature. Hits were reconfirmed, and secondary assays were used to evaluate selectivity, including bovine cardiac myofibrils (pCa 5.86) and enzyme coupled hits with a hexokinase screen (Sigma-Aldrich).

PKAC-alpha = target: T3, PKAC-alpha (Homo sapiens, UniProt P17612); assay: KINOMEscan scanEDGE; format: binding; conditions: 20 uM
T3 construct: purchased Eurofins DiscoverX (KINOMEscan; SAFETYscan E/IC50 ELECT)

CHEK1 = target: T4, CHEK1 (Homo sapiens, UniProt O14757); assay: KINOMEscan scanEDGE; format: binding; conditions: 20 uM
T4 construct: purchased Eurofins DiscoverX (KINOMEscan; SAFETYscan E/IC50 ELECT)

[3] = test system: dystrophic golden retriever (GRMD) dogs; assay: Habitual activity in GRMD dogs (FitBark); format: in vivo, dog; conditions: 2 mg/kg daily for 4 days, then every other day
Procedure: Studies were performed in two phases. In the first phase, GRMD (n = 4, female, 7 months old) were dosed PO daily with vehicle for 2 weeks, followed by a suspension of EDG-5506 (3 mg/kg daily for 2 days, then 1 mg/kg daily for 2 weeks) and then with vehicle for 2 weeks. Blood was drawn at regular intervals (2–3 draws during the vehicle baseline, 5–8 draws during the dosing period, and 2 draws during the vehicle washout). In a separate dosing period, the same 4 dogs (10 months old) were administered vehicle for 14 days with regular blood draws (6–9 for each dog across the 14-day period). CK activity (Pointe Scientific, Thermo Fisher Scientific) was measured from plasma. In the second phase, the same 4 dogs (15 months old) were fitted with a collar-bound activity monitor (Fitbark 2, Fitbark Inc.) as described previously ([42]), and baseline activity was recorded for 27 days before daily oral gavage with vehicle for 22 days. Three dogs were then dosed in a similar pattern to phase 1 with EDG-5506 (2 mg/kg for 4 days and then 2 mg/kg every other day for 7 days). The fourth dog was dosed with vehicle over the same period. Dogs were then returned to vehicle for a further 12 days. Average daily activity (“Fitbark points”) and time performing various activities (play, rest, active) were recorded.

WT or mdx mice = assay: Forelimb grip strength; format: in vivo, mouse; conditions: single doses up to 10 mg/kg, 4 hours after oral administration
Procedure: Prior to in vivo assessments, mice were dosed PO after a 2-hour fast with 10 mL/Kg suspensions. Grip strength and rotarod assessments were performed masked, 4 hours after dosing using published protocols ([66], [67]). Grip strength was performed with a Columbus Instruments Rodent Force Meter. Forepaw strength represented the average of 5 trials with 30-second rest periods, normalized by BW. Rotarod endurance was performed with a Columbus Instruments RotaMax. Mice were placed on the device drum at 1 rpm, which accelerated 1 rpm every 3 seconds to 12 rpm and a maximal time of 500 seconds. This was repeated 3 times with a 3-minute rest and total time reported. Voluntary wheel running performance was assessed with a customized system. Timestamped RPMs were measured 24 hours per day by infrared sensors, and a custom software calculated distance. Whole-body EBD was visualized after intravenous administration ([35]). EBD in PBS at 10 mg/mL was sterile filtered, and 50 μL/10 g BW was injected via tail vein. After 24 hours, animals were sacrificed, skin was removed and fixed in 4% formalin for 24 hours, and photographed using a Leica/Lumix camera.

CDK7 = target: T5, CDK7 (Homo sapiens, UniProt P50613); assay: KINOMEscan scanEDGE; format: binding; conditions: 20 uM
T5 construct: purchased Eurofins DiscoverX (KINOMEscan; SAFETYscan E/IC50 ELECT)

[4] = test system: psoas S1 (fast skeletal muscle myosin); assay: Stopped-flow analysis of Pi release from myosin; format: biochemical, rabbit; set-up: dose or concentration left out as unconfirmed; conditions: preincubation with myosin 30 minutes prior to actin
Procedure: The rate of Pi release from myosin with actin utilized a fluorescent phosphate binding protein, as described previously ([63]). Experiments were performed in 10 mM MOPS, pH 7.0; 5 mM KCL; 1 mM EGTA; 1 mM DTT; 0.5 mM MgCl2. ATP and ADP were removed by incubation with apyrase ([64]). Prior to mixing with 1 mM ATP in a stopped flow device, compound was incubated with 6 μM psoas S1 at 25°C for 30 minutes.

CCKAR = target: T6, CCKAR (Homo sapiens, UniProt P32238); assay: SAFETYscan Calcium Flux; format: cell-based; set-up: dose or concentration left out as unconfirmed
T6 construct: purchased Eurofins DiscoverX (KINOMEscan; SAFETYscan E/IC50 ELECT)
Procedure: The specificity of EDG-5506 for fast skeletal myosin over other, unrelated proteins was confirmed using two off-target binding and activity screens. […] A second off-target panel (SAFETYscan E/IC50 ELECT, Eurofins DiscoverX) tested in vitro enzyme activity against 78 proteins, including GPCR, ion channel, kinases, nuclear hormone receptors, and transporters. In all assays, the IC50 of EDG-5506 was more than 10 μM (Supplemental Data File 1).

T6 sequence (P32238 whole entry): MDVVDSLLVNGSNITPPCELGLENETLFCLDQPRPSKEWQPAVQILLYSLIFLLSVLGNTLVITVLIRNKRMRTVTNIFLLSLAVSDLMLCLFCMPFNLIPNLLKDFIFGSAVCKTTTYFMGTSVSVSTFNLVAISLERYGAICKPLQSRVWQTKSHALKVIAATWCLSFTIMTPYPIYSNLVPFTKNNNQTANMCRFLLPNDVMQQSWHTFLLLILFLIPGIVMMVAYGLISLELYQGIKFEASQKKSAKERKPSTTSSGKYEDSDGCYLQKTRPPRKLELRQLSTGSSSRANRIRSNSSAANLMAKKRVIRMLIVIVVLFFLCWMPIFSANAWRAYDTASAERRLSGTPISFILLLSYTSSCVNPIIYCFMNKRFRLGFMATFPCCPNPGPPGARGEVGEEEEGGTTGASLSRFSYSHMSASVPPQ
T4 sequence (O14757 whole entry): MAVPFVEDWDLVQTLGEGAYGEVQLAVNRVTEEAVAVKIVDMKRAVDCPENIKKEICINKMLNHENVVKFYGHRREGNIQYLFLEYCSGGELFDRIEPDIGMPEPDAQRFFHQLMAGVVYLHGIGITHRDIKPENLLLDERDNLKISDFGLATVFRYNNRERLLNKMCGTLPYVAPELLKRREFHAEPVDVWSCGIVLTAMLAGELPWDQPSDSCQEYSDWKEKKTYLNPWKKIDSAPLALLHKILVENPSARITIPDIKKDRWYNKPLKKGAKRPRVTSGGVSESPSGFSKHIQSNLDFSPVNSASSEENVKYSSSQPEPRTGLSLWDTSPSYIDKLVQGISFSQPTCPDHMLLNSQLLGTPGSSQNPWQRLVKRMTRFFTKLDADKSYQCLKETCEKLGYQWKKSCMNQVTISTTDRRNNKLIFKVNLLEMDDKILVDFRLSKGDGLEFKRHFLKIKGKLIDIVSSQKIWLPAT
T5 sequence (P50613 whole entry): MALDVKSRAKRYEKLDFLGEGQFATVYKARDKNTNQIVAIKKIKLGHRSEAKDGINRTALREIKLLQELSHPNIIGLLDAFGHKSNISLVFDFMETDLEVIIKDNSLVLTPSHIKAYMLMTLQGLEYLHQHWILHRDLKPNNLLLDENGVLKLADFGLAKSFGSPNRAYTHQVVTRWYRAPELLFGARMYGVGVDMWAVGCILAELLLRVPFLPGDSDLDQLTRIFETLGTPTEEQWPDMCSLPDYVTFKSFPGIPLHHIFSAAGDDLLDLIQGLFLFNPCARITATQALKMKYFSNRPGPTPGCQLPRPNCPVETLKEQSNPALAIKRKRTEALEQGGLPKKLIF
T2 sequence (Q9BE39 whole entry): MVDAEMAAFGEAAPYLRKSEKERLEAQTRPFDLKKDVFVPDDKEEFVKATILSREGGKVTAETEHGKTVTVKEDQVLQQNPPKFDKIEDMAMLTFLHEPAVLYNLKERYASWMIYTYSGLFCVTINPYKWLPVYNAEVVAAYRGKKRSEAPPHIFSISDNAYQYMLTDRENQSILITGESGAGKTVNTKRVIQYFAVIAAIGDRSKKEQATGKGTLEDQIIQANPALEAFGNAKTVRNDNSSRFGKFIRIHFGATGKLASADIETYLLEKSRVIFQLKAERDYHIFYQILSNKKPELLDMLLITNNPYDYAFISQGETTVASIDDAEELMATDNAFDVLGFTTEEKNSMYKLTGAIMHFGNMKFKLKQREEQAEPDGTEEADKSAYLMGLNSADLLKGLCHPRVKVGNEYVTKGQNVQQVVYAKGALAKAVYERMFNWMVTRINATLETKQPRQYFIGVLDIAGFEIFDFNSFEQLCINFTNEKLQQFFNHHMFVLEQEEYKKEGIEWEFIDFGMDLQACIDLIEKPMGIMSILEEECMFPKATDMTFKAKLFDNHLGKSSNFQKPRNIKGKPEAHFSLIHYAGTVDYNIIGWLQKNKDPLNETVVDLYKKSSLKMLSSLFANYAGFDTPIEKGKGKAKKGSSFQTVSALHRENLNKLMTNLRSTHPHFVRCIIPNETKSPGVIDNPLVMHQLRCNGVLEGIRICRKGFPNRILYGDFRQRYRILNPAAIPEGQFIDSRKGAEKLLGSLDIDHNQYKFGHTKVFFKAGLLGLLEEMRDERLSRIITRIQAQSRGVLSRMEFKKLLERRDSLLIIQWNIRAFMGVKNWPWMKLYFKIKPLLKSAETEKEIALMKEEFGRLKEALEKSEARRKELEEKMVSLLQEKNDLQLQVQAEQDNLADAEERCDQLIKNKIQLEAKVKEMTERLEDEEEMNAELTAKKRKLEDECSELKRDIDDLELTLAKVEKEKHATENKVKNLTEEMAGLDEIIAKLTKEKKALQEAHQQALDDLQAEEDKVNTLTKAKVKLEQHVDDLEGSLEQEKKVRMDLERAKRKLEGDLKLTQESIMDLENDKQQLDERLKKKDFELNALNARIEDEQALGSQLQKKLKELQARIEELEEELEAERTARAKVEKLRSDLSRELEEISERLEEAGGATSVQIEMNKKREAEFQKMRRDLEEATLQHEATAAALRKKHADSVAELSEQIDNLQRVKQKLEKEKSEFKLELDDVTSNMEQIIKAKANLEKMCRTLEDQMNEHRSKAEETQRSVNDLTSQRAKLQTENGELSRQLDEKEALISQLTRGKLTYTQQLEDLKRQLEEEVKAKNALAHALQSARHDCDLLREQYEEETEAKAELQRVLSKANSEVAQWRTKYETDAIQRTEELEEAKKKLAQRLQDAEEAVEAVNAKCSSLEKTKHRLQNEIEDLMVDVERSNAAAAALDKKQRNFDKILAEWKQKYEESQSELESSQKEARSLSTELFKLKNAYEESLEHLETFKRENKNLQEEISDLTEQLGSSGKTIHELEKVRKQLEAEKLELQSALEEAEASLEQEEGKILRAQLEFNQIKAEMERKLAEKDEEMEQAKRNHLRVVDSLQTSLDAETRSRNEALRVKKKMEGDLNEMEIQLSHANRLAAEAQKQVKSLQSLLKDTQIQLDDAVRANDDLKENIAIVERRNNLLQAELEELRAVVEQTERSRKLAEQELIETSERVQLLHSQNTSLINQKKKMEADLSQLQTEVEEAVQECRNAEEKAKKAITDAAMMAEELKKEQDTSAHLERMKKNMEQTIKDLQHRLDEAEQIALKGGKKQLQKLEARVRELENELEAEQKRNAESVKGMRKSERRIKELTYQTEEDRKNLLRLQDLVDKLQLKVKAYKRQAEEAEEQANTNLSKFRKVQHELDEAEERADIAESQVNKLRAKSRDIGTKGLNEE
T2 sequence (P85100 whole entry partner): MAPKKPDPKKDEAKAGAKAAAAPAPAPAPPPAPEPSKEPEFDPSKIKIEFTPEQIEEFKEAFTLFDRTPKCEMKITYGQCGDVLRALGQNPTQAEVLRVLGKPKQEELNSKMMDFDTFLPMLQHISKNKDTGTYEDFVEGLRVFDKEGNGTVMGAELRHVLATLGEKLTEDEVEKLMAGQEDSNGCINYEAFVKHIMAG
T2 sequence (Q3SZE5 whole entry partner): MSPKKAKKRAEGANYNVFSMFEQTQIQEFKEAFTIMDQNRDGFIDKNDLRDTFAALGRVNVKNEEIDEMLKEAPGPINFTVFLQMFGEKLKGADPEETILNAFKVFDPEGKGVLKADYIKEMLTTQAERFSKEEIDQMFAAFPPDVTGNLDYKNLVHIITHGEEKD
T1 sequence (P10587 2-849 limits assumed): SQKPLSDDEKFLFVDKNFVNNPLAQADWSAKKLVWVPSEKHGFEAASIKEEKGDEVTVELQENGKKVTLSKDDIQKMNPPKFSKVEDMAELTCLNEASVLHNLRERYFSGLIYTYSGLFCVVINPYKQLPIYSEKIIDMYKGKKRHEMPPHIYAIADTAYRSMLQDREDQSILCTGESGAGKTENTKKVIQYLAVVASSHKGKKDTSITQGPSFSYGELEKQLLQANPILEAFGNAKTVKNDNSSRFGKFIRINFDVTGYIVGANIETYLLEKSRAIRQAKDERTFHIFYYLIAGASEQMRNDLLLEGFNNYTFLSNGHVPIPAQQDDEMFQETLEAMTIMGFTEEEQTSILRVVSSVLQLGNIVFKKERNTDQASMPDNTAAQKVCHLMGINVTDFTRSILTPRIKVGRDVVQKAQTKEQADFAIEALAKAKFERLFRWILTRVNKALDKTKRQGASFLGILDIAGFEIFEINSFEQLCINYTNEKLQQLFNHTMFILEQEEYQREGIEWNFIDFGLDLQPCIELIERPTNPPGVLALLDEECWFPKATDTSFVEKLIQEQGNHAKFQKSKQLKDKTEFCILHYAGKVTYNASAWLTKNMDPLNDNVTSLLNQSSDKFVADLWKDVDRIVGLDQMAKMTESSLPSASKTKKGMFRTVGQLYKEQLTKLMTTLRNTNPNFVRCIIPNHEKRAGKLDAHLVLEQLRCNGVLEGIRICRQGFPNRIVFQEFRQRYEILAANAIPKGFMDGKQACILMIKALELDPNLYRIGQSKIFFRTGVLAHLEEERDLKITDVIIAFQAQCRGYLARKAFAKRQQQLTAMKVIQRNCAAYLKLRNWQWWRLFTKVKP
T1 sequence (P02607 2-151 partner limits assumed): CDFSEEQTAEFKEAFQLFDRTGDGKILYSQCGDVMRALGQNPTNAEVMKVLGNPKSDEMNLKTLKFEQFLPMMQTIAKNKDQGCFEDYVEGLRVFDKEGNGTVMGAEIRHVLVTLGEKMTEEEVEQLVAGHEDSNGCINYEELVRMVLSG

Compound: O=c1ccc(-c2cnc(OCC(F)(F)F)nc2)nn1Cc1cncc(F)c1 [EDG-5506]
- IC50 [1]: > 100 µM
- IC50 [2]: > 100 µM
- binding, % of control (PKAC-alpha): 100 % of control
- binding, % of control (CHEK1): 100 % of control
- improvement of average daily activity [3]: more than 30%
- grip strength (WT or mdx mice): no effect
- binding, % of control (CDK7): 83 % of control
- rate of Pi release from myosin with actin [4]: decreased the rate of Pi release
- Emax (CCKAR; read-out: Max Response (%) (Agonist)): 1.03%
- Emax (CCKAR; read-out: Max Response (%) (Antagonist)): 5.54%
